Key:
Staphylococcus aureus [1] = assay: Inhibition of Hla protein expression in methicillin-resistant Staphylococcus aureus USA300 at 4 to 64 ug/ml incubated for overnight by western blot analysis; assay type: functional; conditions: dose 4-64 µg/ml, DDE = dose-dependent effect
Staphylococcus aureus [2] = assay: Inhibition of Hla protein expression in methicillin-resistant Staphylococcus aureus Newman at 4 to 64 ug/ml incubated for overnight by western blot analysis; assay type: functional; conditions: dose 4-64 µg/ml, DDE = dose-dependent effect

COc1ccc(-c2oc3cc(O)cc(O)c3c(=O)c2O)cc1O [TAMARIXETIN]
inhibition (Staphylococcus aureus [1]): Dde
inhibition (Staphylococcus aureus [2]): Dde

— ChEMBL document CHEMBL5120923, “Tamarixetin Attenuated the Virulence of Staphylococcus aureus by Directly Targeting Caseinolytic Protease P” (J Nat Prod, 2022)
